Results taken from patent publication US9433710B2, “Biocompatible implant” (LABORATORIS SANIFIT, S. L., priority 2011, dated 2016).

What was measured:
RAW 264.7 cells [1] = assay: LDH cytotoxicity assay; format: cell-based, mouse; details: IP6 for 24 hours
Method: RAW cells 264.7 were seeded at a density of 20,000 cells/cm2 in 24-well plate and cultured for 24 h. After cell attachment, culture media was changed and different doses of) IP6 were added. Cells were cultured for additional 24 hours and culture media was collected to test cytotoxicity (LDH activity). LDH cytotoxicity assay was performed using the Cytotoxicity Detection Kit according to the manufacturer's protocol. This colorimetric assay quantifies activity of LDH released from the cytosol of damaged cells into the supernatant and thus serves as an index of cell death.
Results were presented relative to the LDH activity in the media of control cells (low control, 0% of cell death) and of cells treated with 1% Triton X-100 (high control, 100% death) using the equation: Cytotoxicity (%)=(exp value−low control)/(high control−low control)*100. 3. Cell Proliferation Assay

RAW 264.7 cells [2] = assay: Cell proliferation assay (BrdU incorporation); format: cell-based, mouse; details: IP6 for 24 hours, BrdU for 6 h
Method: RAW cells 264.7 were seeded at a density of 2,500 cells/well in a 96-well plate and cultured for 24 h. After cell attachment, culture media was changed and different doses of IP6 were added. Cells were cultured for additional 24 hours and BrdU was added for the last 6 hours. Incorporation of BrdU was determinated by Cell Proliferation ELISA kit as described by the manufacturer.

RAW 264.7 cells [3] = assay: RANKL-induced osteoclast (OCL) formation, TRAP staining; format: cell-based, mouse; details: 5 days
Method: Osteoclast-like cells were generated in culture from RAW 264.7 cells. 20,000 cells/cm2 were seeded in 24-well plates and placed in the CO2 incubator overnight to allow the cells to attach to the surface. After 24 h, the culture medium was replaced with media containing 100 ng/mL RANKL. Osteoclasts were successfully generated by dosing with RANKL every 48 h over the course of 5 days. To confirm the generation of multinucleated osteoclast-like cells, the cultured cells were stained for the enzyme TRAP using the TRAP-staining kit, according to the manufacturer's instructions. TRAP is the enzyme that has been used as a marker of osteoclast function for more than 20 years. TRAP-positive multinucleated osteoclasts were visualized by light microscopy and photographed. Each OCL formation assay was performed at least 3 times. To examine the effect of IP6 on OCL formation, 20,000 cells/cm2 were seeded in 24-well plates and, after 24 h, the culture medium was replaced with media containing 100 ng/mL RANKL and different doses of IP6 (0.1, 1, 10, 100 μM). Treatments were added after changing the media every 48 h over the course of 5 days. The effect of IP6 on OCL formation was assessed by analysis of the number of TRAP-positive cells, gene expression levels of osteoclast and functional markers, resorption activity on dentin discs and actin ring formation.

RAW 264.7 cells [4] = assay: Real-time RT-PCR of osteoclast gene and functional markers; format: cell-based, mouse; details: RANKL-treated cells, 5 days
Method: To examine the effect of IP6 on OCL formation, 20,000 cells/cm2 were seeded in 24-well plates and, after 24 h, the culture medium was replaced with media containing 100 ng/mL RANKL and different doses of IP6 (0.1, 1, 10, 100 μM). Treatments were added after changing the media every 48 h over the course of 5 days. The effect of IP6 on OCL formation was assessed by analysis of the number of TRAP-positive cells, gene expression levels of osteoclast and functional markers, resorption activity on dentin discs and actin ring formation.
Total RNA was isolated with Tripure from cells treated as describe above, following the instructions of the manufacturer. RNA was quantified using a spectrophotometer set at 260 nm (Nanodrop, Thermo Fisher Scientific Inc, US).
The same amount of total RNA ([…]) from each sample was reverse transcribed to cDNA at 37° C. for 60 minutes in a final volume of […], using High Capacity RNA to cDNA kit (Applied Biosystems, USA). Each cDNA was diluted 1/5 and aliquots, to avoid freezing and thawing cycles, were stored at −20° C. until the PCR reactions were carried out.
Real-time PCR was performed for two housekeeping genes: 18S rRNA, GAPDH; three osteoclast gene markers: TRAP, CalcR, CFMS; and four osteoclast functional markers: CtsK, MMP-9, Car2 and H+-ATPase.
Real-time PCR was performed in the Lightcycler 480® (Roche Diagnostics, Mannheim, Germany) using SYBR green detection. Each reaction contained 7 μl Lightcycler-FastStart DNA MasterPLUS SYBR Green I (containing Fast Start Taq polymerase, reaction buffer, dNTPs mix, SYBRGreen I dye and MgCl2), 0.5 μM of each, the sense and the antisense specific primers (Table 1) and 3 μl of the cDNA dilution in a final volume of 10 μl. The amplification program consisted of a preincubation step for denaturation of the template cDNA (5 min 95° C.), followed by 45 cycles consisting of a denaturation step (10 s 95° C.), an annealing step (10 s 60° C.) and an extension step (10 s 72° C.). After each cycle, fluorescence was measured at 72° C. A negative control without cDNA template was run in each assay.
To allow relative quantification after PCR, standard curves were constructed from standard reactions for each target and housekeeping genes. The crossing point readings for each of the unknown samples were used to calculate the amount of either the target or housekeeping relative to a standard curve, using the Second Derivative Maximum Method. Relative mRNA levels were calculated as the ratio of relative concentration for the target genes in the same sample using the Advanced Relative Quantification Method provided by the LightCycler 480 analysis software version 1.5 (Roche Diagnostics, Mannheim, Germany).

RAW 264.7 cells [5] = assay: Resorption pit assay on dentine discs; format: cell-based, mouse; details: 1 μM IP6 during osteoclastogenesis
Method: RAW 264.7 cells were seeded on dentine slices at a density of 20,000 cells/cm^2. To study the effect of IP6 on OCL formation cells were cultured with media containing 100 ng/mL RANKL and IP6 (1 μM) over the course of the entire experiment. To study the effect of IP6 on mature osteoclasts-like cells. OCLs were generated by dosing RAW 264.7 cells with RANKL over the course of 6 days and then treated with IP6 (1 μM) for 4 days. After the culturing period, cells were removed from the dentine slices by sonication in 0.1 N NaOH for 2 minutes, stained in hematoxylin for 40 seconds and washed in distilled water. The surface of each dentine slice was examined by light microscopy for evidence of lacunar resorption and quantitative analysis of the resorption area was performed with Image J software 1.44p (NIH, USA).

[6] = system: human umbilical cord mesenchymal stem cells (hUC-MSCs); assay: Real-time RT-PCR of osteoblast markers in hUC-MSCs under osteogenic conditions; format: cell-based; details: 4 μM IP6 for 19 days
Method: hUC-MSCs from two different donors were seeded (n=12) in 24-well plates and grown to confluence in growth media consisting of DMEM-LG supplemented with penicillin (50 IU/ml), streptomycin (50 μg streptomycin/mil) and 20% FBS. Cells were cultured at 37° C. in a humidified atmosphere of 5% CO2. At confluence (designated as day 0), cells were grown in differentiation media consisting of growth media supplemented with hydrocortisone (200 nM), ascorbic acid (50 μg/ml) and β-glycerophosphate (10 mM). Cell culture media, with or without IP6, was refreshed twice a week over a 19-day time period. The experimental procedure developed in example 5 was used. In this example, Real-time PCR was performed for two housekeeping genes: beta-actin, GAPDH; and four osteoblast markers: Runx2, Col1A, ALP and OC.

bone resorption = details: background statement; cited from earlier work
[7] = background statement; cited from earlier work

Compound: O=P(O)(O)O[C@H]1[C@H](OP(=O)(O)O)[C@@H](OP(=O)(O)O)[C@H](OP(=O)(O)O)[C@@H](OP(=O)(O)O)[C@H]1OP(=O)(O)O [IP6, Myo-inositol-1,2,3,4,5,6-hexakisphosphate]
- cell viability (LDH activity) (RAW 264.7 cells [1]): without affecting
- cell proliferation (BrdU) (RAW 264.7 cells [2]): without affecting
- osteoclastogenesis induced by RANKL (RAW 264.7 cells [3]; 100 ng/mL RANKL): decreases
- number of TRAP positive cells (RAW 264.7 cells [3]; RANKL-treated cells): decreased
- MMP-9 mRNA levels (RAW 264.7 cells [4]): decreased
- TRAP mRNA levels (RAW 264.7 cells [4]): decreased
- calcitonin receptor mRNA levels (RAW 264.7 cells [4]): decreased
- cathepsin K mRNA levels (RAW 264.7 cells [4]): decreased
- RANKL-induced osteoclast bone resorption ability (RAW 264.7 cells [5]): inhibits
- ALP mRNA levels compared to the control group [6]: higher
- Col1A mRNA levels compared to the control group [6]: lower
- OC mRNA levels compared to the control group [6]: higher
- Runx-2 mRNA levels compared to the control group [6]: higher
- osteoblast differentiation of hUC-MSCs [6]: increases
- bone resorption in animal models of osteoporosis (bone resorption): inhibitor of bone resorption
- hydroxyapatite dissolution [7]: potent inhibitor
